This note sets out measurements from ChEMBL document CHEMBL3272271, “Folate antagonists. 13. 2,4-Diamino-6-](alpha,alpha,alpha-trifluoro-m-tolyl)thio]quinazoline and related 2,4-diamino-6-[(phenyl- and naphthyl)thio]quinazolines, a unique class of antimetabolites with extraordinary antimalarial and antibacterial effects” (J Med Chem, 1978).

The subject of assay [1] is Plasmodium berghei. The experiment in a line: Antimalarial activity against Plasmodium berghei infected in mouse assessed as increase in mean survival days of host at 640 mg/kg, sc administered 72 hrs after infection relative to control. The following applies: route subcutaneous. In kind it is functional.
The subject of assay [2] is Plasmodium berghei. In words: Antimalarial activity against Plasmodium berghei infected in mouse assessed as disease cure from parasite infection at 640 mg/kg, sc administered 72 hrs after infection. Format: functional, organism-based. Also on record: dose 640 mg/kg.
The subject of assay [3] is Staphylococcus aureus. The experiment in a line: Antibacterial activity against Staphylococcus aureus UC-96 by gradient plate test. Format: functional.
The test system of assay [4] is Plasmodium berghei. The experiment in a line: Antimalarial activity against Plasmodium berghei infected in mouse assessed as increase in mean survival days of host at 20 mg/kg, sc administered 72 hrs after infection relative to control. In kind it is functional. The following applies: route subcutaneous.
The next assay deals with Enterococcus faecalis. The experiment in a line: Antibacterial activity against Streptococcus faecalis MGH-2 by gradient plate test. Format: functional.
The test system of another assay is Pseudomonas aeruginosa. In words: Antibacterial activity against Pseudomonas aeruginosa 28 by gradient plate test. In kind it is functional.
In assay [5] the test system is Staphylococcus aureus. In words: Antibacterial activity against drug-resistant Staphylococcus aureus S18713 by gradient plate test. In kind it is functional.
For a further assay, the system named is Shigella sonnei. The experiment in a line: Antibacterial activity against Shigella sonnei C-10 by gradient plate test. In kind it is functional.
Assay [6] deals with Plasmodium berghei. The experiment in a line: Antimalarial activity against Plasmodium berghei infected in mouse assessed as increase in mean survival days of host at 160 mg/kg, sc administered 72 hrs after infection relative to control. Format: functional. To be noted: route subcutaneous.
The subject of assay [7] is Plasmodium berghei. The experiment in a line: Antimalarial activity against Plasmodium berghei infected in mouse assessed as increase in mean survival days of host at 40 mg/kg, sc administered 72 hrs after infection relative to control. In kind it is functional. To be noted: route subcutaneous.
In the next assay the test system is Escherichia coli. The experiment in a line: Antibacterial activity against Escherichia coli Vogel by gradient plate test. Format: functional.
Assay [8] relates to Mycobacterium tuberculosis. In words: Antibacterial activity against Mycobacterium tuberculosis H37Ra by gradient plate test. In kind it is functional.
In assay [9] the test system is Plasmodium berghei. In words: Antimalarial activity against Plasmodium berghei infected in mouse assessed as disease cure from parasite infection at 160 mg/kg, sc administered 72 hrs after infection. Also on record: dose 160 mg/kg. Format: functional, organism-based.
For assay [10], the system named is Plasmodium berghei. The experiment in a line: Antimalarial activity against Plasmodium berghei infected in mouse assessed as increase in mean survival days of host at 2.5 mg/kg, sc administered 72 hrs after infection relative to control. In kind it is functional. To be noted: route subcutaneous.
Assay [11] deals with Plasmodium gallinaceum. In words: Antimalarial activity against sporozoite-induced Plasmodium gallinaceum infected in white leghorn chicken assessed as increase in mean survival days of host at 30 mg/kg, sc administered 72 hrs after infection relative to control. To be noted: route subcutaneous. In kind it is functional.
Assay [12] concerns Plasmodium gallinaceum. In words: Antimalarial activity against trophozoite-induced Plasmodium gallinaceum infected in white leghorn chicken assessed as increase in mean survival days of host at 10 mg/kg, sc administered 72 hrs after infection relative to control. The following applies: route subcutaneous. Format: functional.
For assay [13], the system named is Plasmodium berghei. In words: Antimalarial activity against Plasmodium berghei infected in mouse assessed as increase in mean survival days of host at 1.25 mg/kg, sc administered 72 hrs after infection relative to control. Format: functional. To be noted: route subcutaneous.
Assay [14] relates to Plasmodium berghei. The experiment in a line: Antimalarial activity against Plasmodium berghei infected in mouse assessed as increase in mean survival days of host at 5 mg/kg, sc administered 72 hrs after infection relative to control. Format: functional. To be noted: route subcutaneous.
The subject of assay [15] is Plasmodium gallinaceum. The experiment in a line: Antimalarial activity against trophozoite-induced Plasmodium gallinaceum infected in white leghorn chicken assessed as increase in mean survival days of host at 20 mg/kg, sc administered 72 hrs after infection relative to control. In kind it is functional. The following applies: route subcutaneous.
For assay [16], the system named is Plasmodium gallinaceum. The experiment in a line: Antimalarial activity against trophozoite-induced Plasmodium gallinaceum infected in white leghorn chicken assessed as increase in mean survival days of host at 2.5 mg/kg, sc administered 72 hrs after infection relative to control. Format: functional. The following applies: route subcutaneous.
Assay [17] relates to Plasmodium gallinaceum. The experiment in a line: Antimalarial activity against sporozoite-induced Plasmodium gallinaceum infected in white leghorn chicken assessed as increase in mean survival days of host at 120 mg/kg, sc administered 72 hrs after infection relative to control. Format: functional. To be noted: route subcutaneous.
The subject of assay [18] is Plasmodium gallinaceum. In words: Antimalarial activity against sporozoite-induced Plasmodium gallinaceum infected in white leghorn chicken assessed as disease cure from parasite infection at 30 mg/kg, sc administered 72 hrs after infection. In kind it is functional, organism-based. Also on record: dose 30 mg/kg.
In assay [19] the test system is Plasmodium gallinaceum. In words: Antimalarial activity against trophozoite-induced Plasmodium gallinaceum infected in white leghorn chicken assessed as increase in mean survival days of host at 1.25 mg/kg, sc administered 72 hrs after infection relative to control. In kind it is functional. The following applies: route subcutaneous.
Assay [20] concerns Plasmodium berghei. In words: Antimalarial activity against Plasmodium berghei infected in mouse assessed as disease cure from parasite infection at 80 mg/kg, sc administered 72 hrs after infection. Format: functional, organism-based. Also on record: dose 80 mg/kg.
Assay [21] relates to Plasmodium berghei. In words: Antimalarial activity against Plasmodium berghei infected in mouse assessed as disease cure from parasite infection at 40 mg/kg, sc administered 72 hrs after infection. Format: functional, organism-based. The arrangement: dose 40 mg/kg.
In assay [22] the test system is Plasmodium berghei. In words: Antimalarial activity against Plasmodium berghei infected in mouse assessed as disease cure from parasite infection at 320 mg/kg, sc administered 72 hrs after infection. Format: functional, organism-based. The arrangement: dose 320 mg/kg.
Assay [23] relates to Plasmodium gallinaceum. The experiment in a line: Antimalarial activity against sporozoite-induced Plasmodium gallinaceum infected in white leghorn chicken assessed as increase in mean survival days of host at 15 mg/kg, sc administered 72 hrs after infection relative to control. Format: functional. The following applies: route subcutaneous.
Assay [24] deals with Plasmodium gallinaceum. The experiment in a line: Antimalarial activity against trophozoite-induced Plasmodium gallinaceum infected in white leghorn chicken assessed as increase in mean survival days of host at 5 mg/kg, sc administered 72 hrs after infection relative to control. In kind it is functional. To be noted: route subcutaneous.
Assay [25] deals with Plasmodium gallinaceum. The experiment in a line: Antimalarial activity against sporozoite-induced Plasmodium gallinaceum infected in white leghorn chicken assessed as disease cure from parasite infection at 240 mg/kg, sc administered 72 hrs after infection. Format: functional, organism-based. Also on record: dose 240 mg/kg.
Assay [26] deals with Plasmodium gallinaceum. In words: Antimalarial activity against sporozoite-induced Plasmodium gallinaceum infected in white leghorn chicken assessed as disease cure from parasite infection at 120 mg/kg, sc administered 72 hrs after infection. In kind it is functional, organism-based. The arrangement: dose 120 mg/kg.
In assay [27] the test system is Plasmodium berghei. The experiment in a line: Antimalarial activity against Plasmodium berghei infected in mouse assessed as increase in mean survival days of host at 10 mg/kg, sc administered 72 hrs after infection relative to control. Format: functional. The following applies: route subcutaneous.
Assay [28] concerns Plasmodium gallinaceum. In words: Antimalarial activity against sporozoite-induced Plasmodium gallinaceum infected in white leghorn chicken assessed as increase in mean survival days of host at 60 mg/kg, sc administered 72 hrs after infection relative to control. In kind it is functional. To be noted: route subcutaneous.
The subject of assay [29] is Plasmodium gallinaceum. The experiment in a line: Antimalarial activity against sporozoite-induced Plasmodium gallinaceum infected in white leghorn chicken assessed as disease cure from parasite infection at 60 mg/kg, sc administered 72 hrs after infection. In kind it is functional, organism-based. Also on record: dose 60 mg/kg.
For assay [30], the system named is Plasmodium gallinaceum. The experiment in a line: Antimalarial activity against trophozoite-induced Plasmodium gallinaceum infected in white leghorn chicken assessed as increase in mean survival days of host at 0.63 mg/kg, sc administered 72 hrs after infection relative to control. To be noted: route subcutaneous. In kind it is functional.
Assay [31] relates to Plasmodium gallinaceum. The experiment in a line: Antimalarial activity against sporozoite-induced Plasmodium gallinaceum infected in white leghorn chicken assessed as disease cure from parasite infection at 480 mg/kg, sc administered 72 hrs after infection. In kind it is functional, organism-based. Also on record: dose 480 mg/kg.
Assay [32] has as its system Plasmodium berghei. In words: Antimalarial activity against Plasmodium berghei infected in mouse assessed as increase in mean survival days of host at 80 mg/kg, sc administered 72 hrs after infection relative to control. Format: functional. To be noted: route subcutaneous.
Assay [33] has as its system Plasmodium berghei. In words: Antimalarial activity against Plasmodium berghei infected in mouse assessed as increase in mean survival days of host at 320 mg/kg, sc administered 72 hrs after infection relative to control. In kind it is functional. The following applies: route subcutaneous.

One may read the MIC as the lowest concentration found to suppress growth.

Values after ≈ are worked out from the molar mass of the structure shown. Active and inactive are the calls of the source. No cut-off for these calls is given here. A value given as a limit tells only on which side of the number the result lay.

For `Nc1nc(N)c2c(Cl)c(Sc3ccccc3)ccc2n1`, the MST in the assay on Plasmodium berghei [1] amounted to 9.9 days; with Plasmodium berghei [4], 3.9 days; with Plasmodium berghei [6], 13.9 days; in the assay on Plasmodium berghei [7] it was 4.7 days. The outcome with Plasmodium berghei [2] was Active. Also, the minimal inhibitory concentration (MIC) was below 0.25 µg/mL with Staphylococcus aureus [3]; below 0.25 µg/mL with Enterococcus faecalis; above 25 µg/mL in the assay with Pseudomonas aeruginosa; below 0.25 µg/mL against Staphylococcus aureus [5]; below 0.25 µg/mL against Shigella sonnei; below 0.25 µg/mL with Escherichia coli. For the same molecule, in assay [8], the MIC was 10 µg/mL (≈ 33 µM).
Take `Nc1nc(N)c2cc(Sc3cccc(-c4ccccc4)c3)ccc2n1`: the outcome in the assay with Plasmodium berghei [9], in the assay on Plasmodium berghei [2], with Plasmodium gallinaceum [18], in the assay with Plasmodium berghei [20], in the assay with Plasmodium berghei [21] and in the assay on Plasmodium berghei [22] was Active. The result in the assay with Plasmodium gallinaceum [25], in the assay with Plasmodium gallinaceum [26], in the assay with Plasmodium gallinaceum [29] and in the assay on Plasmodium gallinaceum [31] was Active. The MST worked out at 5.3 days in the assay on Plasmodium berghei [10]; 1 days with Plasmodium gallinaceum [11]; 0 days with Plasmodium gallinaceum [12]; 4.5 days in the assay on Plasmodium berghei [13]; 7.9 days in the assay on Plasmodium berghei [14]; 0 days with Plasmodium gallinaceum [15]. In addition, the MST was found to be 11.1 days in the assay with Plasmodium berghei [4]; 0 days with Plasmodium gallinaceum [16]; 0.3 days with Plasmodium gallinaceum [17]; 0 days in the assay on Plasmodium gallinaceum [19]; 0.7 days in the assay with Plasmodium gallinaceum [23]; 0 days in the assay on Plasmodium gallinaceum [24]. The MST in the assay on Plasmodium berghei [27] worked out at 8.1 days; with Plasmodium gallinaceum [28], 0.3 days; in the assay on Plasmodium berghei [7], 17.4 days; in the assay with Plasmodium gallinaceum [30], 0 days. In addition, the minimal inhibitory concentration (MIC) in the assay with Staphylococcus aureus [3] was below 0.25 µg/mL; against Enterococcus faecalis it was below 0.25 µg/mL; in the assay with Pseudomonas aeruginosa, above 25 µg/mL; in the assay with Staphylococcus aureus [5], below 0.25 µg/mL; against Shigella sonnei, above 25 µg/mL; in the assay with Escherichia coli, 10 µg/mL (≈ 29 µM). The minimal inhibitory concentration (MIC) in assay [8] was above 25 µg/mL.
In the case of `Nc1nc(N)c2c(Cl)c(Sc3ccccc3Cl)ccc2n1`, the MST stood at 24.9 days with Plasmodium berghei [1]; 11.7 days with Plasmodium berghei [32]; 4.7 days in the assay with Plasmodium berghei [4]; 24.4 days with Plasmodium berghei [33]; 14.9 days with Plasmodium berghei [6]; 10.2 days in the assay with Plasmodium berghei [7]. Besides, the outcome in the assay on Plasmodium berghei [9], in the assay with Plasmodium berghei [2], in the assay with Plasmodium berghei [20], with Plasmodium berghei [21] and in the assay with Plasmodium berghei [22] was Active. The minimum inhibitory concentration (MIC) is below 0.25 µg/mL in the assay on Staphylococcus aureus [3]; below 0.25 µg/mL with Enterococcus faecalis; above 25 µg/mL against Pseudomonas aeruginosa; below 0.25 µg/mL in the assay with Staphylococcus aureus [5]; 1 µg/mL (≈ 2.97 µM) against Shigella sonnei; below 0.25 µg/mL in the assay with Escherichia coli. This molecule showed a minimum inhibitory concentration (MIC) in [8] above 25 µg/mL.
